Laboratory results published in US11230526B1, “Cylcoalkenyl derivatives useful as agonists of the GPR120 and/or GPR40 receptors” (Janssen Pharmaceutica NV, priority 2018, dated 2022).

How the values were obtained:
Assay type in all cases: cell-based
Human GPR120 short form [1] = molecular target: T1, Human GPR120 short form (Homo sapiens, UniProt Q5NUL3); experiment: Human GPR120 calcium flux assay, Procedure Calcium A (2500 cells/well)
T1 construct: expressed in transfected cells
T1 sequence (Q5NUL3 1-361): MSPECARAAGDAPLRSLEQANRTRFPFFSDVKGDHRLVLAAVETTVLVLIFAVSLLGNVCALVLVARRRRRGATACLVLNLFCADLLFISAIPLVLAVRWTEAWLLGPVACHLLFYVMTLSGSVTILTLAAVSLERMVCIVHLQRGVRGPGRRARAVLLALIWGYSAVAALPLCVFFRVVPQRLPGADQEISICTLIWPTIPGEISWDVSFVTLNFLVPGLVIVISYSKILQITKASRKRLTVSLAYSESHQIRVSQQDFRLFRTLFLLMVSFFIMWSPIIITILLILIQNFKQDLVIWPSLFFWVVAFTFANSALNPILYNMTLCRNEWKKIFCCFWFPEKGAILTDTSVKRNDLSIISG
Excerpt: Human GPR120 in Calcium Flux Assay
This in vitro assay serves to assess test compound agonist activity against the short splice variant (SVS with Accession number NM_001195755.1 confirmed by sequencing data) of the GPR120 receptor. The Human Short splice variant #2 (NM_001195755.1) is missing an in-frame coding exon compared to variant 1 (the Human Long splice variant NM_181745.3), resulting in a shorter isoform (GPR120-S) lacking a 16 aa protein segment compared to isoform GPR120-L. The assay platform utilizes HEK-293 cells stably transfected to express the Human GPR120 short form. These cells are first loaded with the Ca^+2 sensitive dye, Fluo-4 NW. Upon stimulation, intracellular released Ca^+2 can bind to the dye and alter its fluorescence intensity. This increase in fluorescence signal, and thus the flux in intracellular [Ca^2+], is detected and quantitated by fluorescence imaging using a FLIPR reader. The effect of the agonist is measured as a function of concentration and used to calculate an EC50 based upon a response curve.
In this procedure 2500 cells/well were employed.
A Human GPR120 clone (Genbank accession number NM_001195755.1) was placed into the pcDNA3.1 mammalian expression vector carrying the neomycin resistance gene. A stable mammalian cell was generated by placing the above clone into a HEK293 background. Clonal cells responding to long chain fatty acids had expression levels of GPR120 confirmed by RT-qPCR. Human HEK-GPR120 cells were cultured in Dulbecco's Modified Eagle's Medium (DMEM)/F12 medium supplemented with 10% fetal bovine serum (FBS), 1% L-Glutamine and 1% penicillin/streptomycin and 0.5 mg/ml G-418. Cells were split 2 times a week to keep the cells in the log-phase growth.
In preparation for the assay, HEK cells stably transfected with Human GPR120 (2.5K cells per well in 25 uL growth medium) were seeded into 384-well plates and then incubated overnight (37° C., 5% CO2). The next day, the media was changed to 20 μL assay buffer and the cell starved for 1 h at 37° C. The dye loading solution (2× dye) was prepared using 10 mL assay buffer, 100 μL of 250 mM probenecid, 1 bottle of Component A, and 20 μl of dye in DMSO. Twenty μL of the 2× dye loading buffer was then added to each well. The plates were incubated at 37° C. for 30 min, then at room temperature for an additional 15 minutes, before performing the assay on FLIPR.
The assay was performed on a FLIPR plate reader using the following parameters. Baseline was read for 10 seconds at 1 sec intervals. The program was set to transfer 10 μL of ligand from compound plate to cell plate after baseline reading. Aspiration was executed at: 10 μL/sec speed, 4.6 μL height, Dispensing was executed at: 30 μL/sec speed, 45 μL height. After compound addition, each well was read for 300 sec, with measurements collected at 1 sec intervals.
The kinetic data from the FLIPR was based upon a 5 minute window for data collection. The fluorescence of each sample well was used for individual calculations of a normalized RFU value, which was defined as maximum response minus the minimum response. The normalized fluorescence reading (RFU) was calculated as follows: RFU=Fmax−Fmin
The Fitting Equation was: Y=Bottom+(Top-Bottom)/(1+10^((Log EC50−X)*HillSlope)), where X is the log of the concentration and Y is the response.

Human GPR120 short form [2] = molecular target: T1, Human GPR120 short form; experiment: Human GPR120 calcium flux assay, Procedure Calcium B (4200 cells/well)
Procedure, shortened: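 Agonist EC50 came from a four-parameter fit of RFU (Fmax−Fmin) read over 300 s on FLIPR. Cells were HEK293 stably transfected with human GPR120 (NM_001195755.1) at 4200 per well, serum-starved 1 h and loaded with Fluo-4 NW dye with probenecid before ligand addition.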

human GPR40 = molecular target: T2, human GPR40 (Homo sapiens, UniProt O14842); experiment: GPR40 calcium flux assay, human GPR40; conditions: HEK293 cells stably expressing GPR40; table does not say human or rat
T2 construct: expressed in transfected cells
T2 sequence (O14842 whole entry): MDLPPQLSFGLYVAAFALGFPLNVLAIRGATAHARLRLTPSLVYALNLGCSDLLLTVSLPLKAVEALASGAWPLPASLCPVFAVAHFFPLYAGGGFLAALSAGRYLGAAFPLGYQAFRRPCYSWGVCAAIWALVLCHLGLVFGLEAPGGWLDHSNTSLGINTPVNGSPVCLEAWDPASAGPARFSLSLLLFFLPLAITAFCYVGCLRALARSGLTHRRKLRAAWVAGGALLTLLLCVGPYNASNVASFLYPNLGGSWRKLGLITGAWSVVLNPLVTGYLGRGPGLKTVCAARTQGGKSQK
Procedure, shortened: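 Cells preincubated 1 h at 37° C. in HBSS, 20 mM HEPES, 0.1% BSA, then Fluo 8 calcium dye 30 min at 37° C. and 15 min at room temperature.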

[3] = molecular target: T3, short form of the GPR120 receptor (Homo sapiens, UniProt Q5NUL3); experiment: Human GPR120 DiscoveRx PathHunter Beta-Arrestin assay, Procedure β-arrestin B
T3 construct: host or cells: PathHunter CHO-K1 GPR120S β-Arrestin Cell Line
T3 sequence (P32121 whole entry partner, one chain of several): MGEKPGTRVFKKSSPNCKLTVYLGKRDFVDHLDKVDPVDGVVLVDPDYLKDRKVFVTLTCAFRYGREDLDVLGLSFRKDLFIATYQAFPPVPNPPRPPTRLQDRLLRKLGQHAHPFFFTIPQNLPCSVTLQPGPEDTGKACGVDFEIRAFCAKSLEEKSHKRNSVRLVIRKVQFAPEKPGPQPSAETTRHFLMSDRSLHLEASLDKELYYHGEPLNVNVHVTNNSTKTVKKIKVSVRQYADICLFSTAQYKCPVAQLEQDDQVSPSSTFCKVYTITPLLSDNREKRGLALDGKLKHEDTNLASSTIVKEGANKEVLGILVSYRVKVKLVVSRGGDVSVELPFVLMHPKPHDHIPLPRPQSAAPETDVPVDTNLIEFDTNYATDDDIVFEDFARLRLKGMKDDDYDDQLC
Excerpt: Human GPR120 DiscoveRx PathHunter® Beta-Arrestin Assay Assay Principle:
The binding of an agonist (medium/long chain fatty acids or small molecule agonists) to the G-protein-coupled receptor GPR120 activates phospholipase C, leading to release of intracellular Ca^+2 through the generation of inositol 1,4,5-trisphosphate (InsP3 or IP3). GPR120 activation can also trigger intracellular signaling via recruitment of Beta-Arrestin. In the present method, agonist-induced activation of the human GPR120 receptor is monitored through the use of PathHunter® CHO-K1 GPR120 Beta-Arrestin Cell Line engineered by DiscoveRx, as detailed below. The cell lines are designed to co-express both the ProLink/Enzyme Donor (PK)-tagged GPCR and the Enzyme […] (EA)-tagged Beta-Arrestin fusion proteins. Upon GPR120 receptor stimulation/activation, the EA-tagged Beta-Arrestin portion is translocated to the tagged receptor, where the two enzyme fragments are brought within close proximity. Under these conditions, these fragments can interact and form an active Beta-gal enzyme complex through Enzyme Fragment Complementation (EFC). This active Beta-gal complex can enzymatically hydrolyse the substrate to produce a detectable light signal; therefore, activation as a function of agonist concentration can be expressed as an EC50 value to determine relative compound activities. This in vitro assay therefore serves to assess compound agonist activity of the GPR120.
In Procedure β-arrestin B the cells used were PathHunter® CHO-K1 GPR120S β-Arrestin Cell Line, expressing the short form of the GPR120 receptor (Accession #[…]), with 5000 cells/well.
The selected CHO-K1 GPR120 β-Arrestin cells were cultured in Ham's F12 media supplemented with 10% fetal bovine serum (FBS), 1% Glutamine, 1×p/s, 800 μg/mL G418 and 300 μg/mL Hygromycin B (for selection). Cell stocks were maintained and grown in a sub-confluent state using standard cell culture procedures. The day before the experiment, the cells were harvested with non-enzymatic cell dissociation buffer and re-suspended in complete growth media at the desired concentration. A Corning 384-plate was then seeded with the proper number of cells in a volume of 25 μL, per well. The seeded plates were incubated overnight at 37° C.
On the day of the experiment, the Assay Buffer containing (a) HBSS with Ca^++ and Mg^++, (b) 20 mM HEPES, and (c) 0.1% BSA stabilizer (pH 7.4) was prepared. The growth medium was gently removed from the cell plates and 20 μL of Assay Buffer added to each well. The plate was then incubated at 37° C. for 60 min. Test compounds were serially diluted in Assay Buffer to desired concentrations (more particularly to one or more of the following μM concentrations: 25, 12.5, 6.25, 3.12, 1.56, 0.78, 0.39, 0.19, 0.10, 0.05, 0.02, 0.01). Five μL of compound dilution was then added to each well and the plate incubated at 37° C. for 90 min. The detection reagents were prepared according to the manufacture's instruction. Twelve μL of the detection reagents were added to each well and the plate incubated at room temperature for 60 min.
The plates were read on an EnVision instrument, using Protocol name: Luminescence, Plate type: 384 Costar, Measurement height: 3 mm, Measurement time: 1 s, Aperture: 384 Plate aperture. The % Activity relative to the positive control was calculated using the following equation:
The % Activity values were plotted versus the concentration of test compound and fitted to a sigmoidal dose-response curve with a Hill slope=1 (fixed value) using nonlinear regression with GraphPad Prism 5.0 to calculate the EC50 values. The Fitting Equation was: Y=Bottom+(Top-Bottom)/(1+10^((Log EC50−X)*HillSlope)), where X is the log of the concentration and Y is the response.

SMILES	EC50 (Human GPR120 short form [1]) [nM]	EC50 (Human GPR120 short form [2]) [nM]	EC50 (human GPR40) [nM]	EC50 [3] [nM]
CCCc1ccc(C2=C(COc3ccc(CCC(=O)O)c(C)c3C)CCCC2)cc1 [Compound 463, 3-[2,3-dimethyl-4-[[2-(4-propylphenyl)cyclohexen-1-yl]methoxy]phenyl]Propanoic Acid]	4810	1620	> 5000	
Cc1c(CCC(=O)O)ccc(OCC2=C(c3ccncc3)CCCC2)c1C [Compound 465, 3-[2,3-dimethyl-4-[[2-(4-pyridyl)cyclohexen-1-yl]methoxy]phenyl]Propanoic Acid]	2170	1450	> 5000	
Cc1c(CCC(=O)O)ccc(OCC2=C(c3ncccn3)CCCC2)c1C [Compound 475, 3-[2,3-dimethyl-4-[(2-pyrimidin-2-ylcyclohexen-1-yl)methoxy]phenyl]Propanoic Acid]	4480	2270	> 5000	
Cc1c(CCC(=O)O)ccc(OCC2=C(c3ccccn3)CCCC2)c1C [Compound 490, 3-[2,3-dimethyl-4-[[2-(2-pyridyl)cyclohexen-1-yl]methoxy]phenyl]Propanoic Acid]	2190	743	> 5000	
Cc1c(CCC(=O)O)ccc(OCC2=C(c3ccc(C(C)C)cc3)CCCC2)c1C [Compound 516, 3-[4-[[2-(4-isopropylphenyl)cyclohexen-1-yl]methoxy]-2,3-dimethyl-phenyl]Propanoic Acid]	4610	755	> 5000	
Cc1c(CCC(=O)O)ccc(OCC2=C(c3ccc(C#N)cc3)CCCC2)c1C [Compound 520, 3-[4-[[2-(4-cyanophenyl)cyclohexen-1-yl]methoxy]-2,3-dimethyl-phenyl]Propanoic Acid]	2360	1450	> 5000	
Cc1ccc(C2=C(COc3ccc(CCC(=O)O)c(C)c3C)CCCC2)cn1 [Compound 521]	1280	626	> 5000	

Now those with a lower EC50 (Human GPR120 short form [2]), led by results:

EC50 (Human GPR120 short form [1]) [nM]	EC50 (Human GPR120 short form [2]) [nM]	EC50 (human GPR40) [nM]	EC50 [3] [nM]	SMILES
1330	475	> 5000		Cc1c(CCC(=O)O)ccc(OCC2=C(c3ccc(I)cc3)CCCC2)c1C [Compound 476, 3-[4-[[2-(4-iodophenyl)cyclohexen-1-yl]methoxy]-2,3-dimethyl-phenyl]Propanoic Acid]
	331		371	CC(Cc1ccc(OCC2=C(c3ccc(F)cc3)CCC2)c(F)c1)C(=O)O (centres unmarked) [Compound 458, 3-(3-fluoro-4-((2-(4-fluorophenyl)cyclopent-1-en-1-yl)methoxy)phenyl)-2-methylpropanoic Acid]
2820	330	4020		O=C(O)CCc1ccc(OCC2=C(c3ccc(Cl)cc3)CCCC2)cc1F [Compound 504, 3-[4-[[2-(4-chlorophenyl)cyclohexen-1-yl]methoxy]-2-fluoro-phenyl]Propanoic Acid]
1180	256	> 5000		Cc1ccc(C2=C(COc3ccc(CCC(=O)O)cc3C)CCCC2)cn1 [Compound 477, 3-[3-methyl-4-[[2-(6-methyl-3-pyridyl)cyclohexen-1-yl]methoxy]phenyl]Propanoic Acid]
1560	208	> 5000		Cc1c(CCC(=O)O)ccc(OCC2=C(c3ccc(C#N)cc3)CCC2)c1C [Compound 146, 3-[4-[[2-(4-cyanophenyl)cyclopenten-1-yl]methoxy]-2,3-dimethyl-phenyl]Propanoic Acid]
1590	182	> 5000		Cc1cc(OCC2=C(c3ccc(Cl)cc3)CCCC2)ccc1CCC(=O)O [Compound 506, 3-[4-[[2-(4-chlorophenyl)cyclohexen-1-yl]methoxy]-2-methyl-phenyl]Propanoic Acid]
532	97	> 5000		O=C(O)CCc1cc(F)c(OCC2=C(c3ccc(Cl)cc3)CCC(F)(F)C2)c(F)c1 [Compound 491, 3-[4-[[2-(4-chlorophenyl)-5,5-difluoro-cyclohexen-1-yl]methoxy]-3,5-difluoro-phenyl]Propanoic Acid]
97	67	> 5000		Cc1c(CCC(=O)O)ccc(OCC2=C(c3ccc(Cl)c(F)c3)CCC2)c1C [Compound 157, 3-(4-((2-(4-chloro-3-fluorophenyl)cyclopent-1-en-1-yl)methoxy)-2,3-dimethylphenyl)Propanoic Acid]
